Assay results: US7109376B2, “Benzene and naphthylene derivatives and their use as UV screening agents” (DSM IP Assets B.V., priority 2001, dated 2006)

What was measured:
[1] = solvent Cétiol LC (Cocoyl cyprylate caprate)
[2] = irradiated in high dilution with a Hg-lamp 150 W (Heraeus)
[3] = solvent Crodamol DA (diisopropyladipate)

| SMILES | solubility in Cétiol LC [1] | photostability [2] | solubility in Crodamol DA [3] | mixability with conventional cosmetic solvents |
| --- | --- | --- | --- | --- |
| CC(C)(C)c1cc(CCC[Si](C)(C)O[Si](C)(C)C)c2oc(-c3ccc(-c4nc5cc(C(C)(C)C)cc(CCC[Si](C)(C)O[Si](C)(C)C)c5o4)cc3)nc2c1 [Example 2, 1,4-bis-[2-(5-tert.-butyl-7-{3-(1,1,3,3,3-pentamethyl-disiloxanyl)-1-propyl}-benzoxazol)-yl]-benzene] | 18% | photostable | – | – |
| CCCCC=CC(C)c1cccc2nc(-c3ccc(-c4nc5cccc(C(C)C=CCCCC)c5o4)cc3)oc12 (stereo not shown) [Example 9, 1,4-bis-[2-(7-oct-3-en-2-yl-benzoxazol)-yl]-benzene] | 1.02% | photostable | – | – |
| CC(Cc1cccc2nc(-c3ccc(-c4nc5cccc(CC(C)C[Si](C)(C)O[Si](C)(C)C)c5o4)cc3)oc12)C[Si](C)(C)O[Si](C)(C)C (stereo not shown) [Example 3, 1,4-bis-[2-(7-{3-(1,1,3,3,3-pentamethyl-disiloxanyl)-1-isobutyl}-benzoxazol)-yl]-benzene] | – | photostable | 5.03% | – |
| CCCCCCC(C)c1cc(C(C)(C)C)cc2nc(-c3ccc(-c4nc5cc(C(C)(C)C)cc(C(C)CCCCCC)c5o4)cc3)oc12 (stereo not shown) [Example 11, 1,4-bis-[2-(5-tert.-butyl-7-oct-2-yl-benzoxazol)-yl]-benzene] | – | photostable | – | easily mixable |
| CCCCC=CC(C)c1cc(C)cc2nc(-c3ccc(-c4nc5cc(C)cc(C(C)C=CCCCC)c5o4)cc3)oc12 (stereo not shown) [Example 6, 1,4-bis-[2-(5-methyl-7-oct-3-en-2-yl-benzoxazol)-yl]-benzene] | – | photostable | 1.33% | – |
| CCCCC=CC(C)c1cc(C(C)(C)C)cc2nc(-c3ccc(-c4nc5cc(C(C)(C)C)cc(C(C)C=CCCCC)c5o4)cc3)oc12 (stereo not shown) [Example 8, 1,4-bis-[2-(5-tert.-butyl-7-oct-3-en-2-yl-benzoxazol)-yl]-benzene] | – | photostable | – | easily mixable |
| C=CCc1cc(C(C)(C)C)cc2nc(-c3ccc(-c4nc5cc(C(C)(C)C)cc(CC=C)c5o4)cc3)oc12 [Example 1, 1,4-bis-[2-(5-tert.-butyl-7-allyl-benzoxazol)-yl]-benzene] | 1.1% | photostable | – | – |
| CC(Cc1cc(C(C)(C)C)cc2nc(-c3ccc(-c4nc5cc(C(C)(C)C)cc(CC(C)C[Si](C)(O[Si](C)(C)C)O[Si](C)(C)C)c5o4)cc3)oc12)C[Si](C)(O[Si](C)(C)C)O[Si](C)(C)C (stereo not shown) [Example 5, 1,4-bis-[2-(5-tert.-butyl-7-{3-(1,3,3,3-tetramethyl-1-[(tri-methyl-silyl)-oxy]-disiloxanyl)-1-isobutyl}-benzoxazol)-yl]-benzene] | 12.3% | photostable | – | – |
